Source: US6995188B2 (priority 2002, dated 2006)
Like-named read-outs stand apart in the source and are kept apart here.

Columns and labels:
[1] = tested on: HL-60 cells; type: cell-based, human
[2] = physchem; details: water
[3] = tested on: blood mononuclear cells from leukemia patients; type: cell-based, human
[4] = in vivo; details: Swiss Webster, mouse
[5] = Swiss Webster, mouse, in vivo; for Dead/Total Number / Dead/Total Number for IP Administration: ip
[6] = tested on: P388 lymphocytic leukemia cells; details: mouse, in vivo, ip, 100 mg/kg; cited from earlier work
[7] = tested on: normal donor cells
[8] = pH 5
[9] = tested on: caspase 3 and caspase 3-like activities; type: cell-based, human
[10] = tested on: NB4 cells; type: cell-based, human
[11] = tested on: human leukemia cell lines; type: cell-based
[12] = tested on: mitochondrial membrane potential; type: cell-based, human
[13] = tested on: panel of 60 tumor cell lines; type: cell-based, human

SMILES: C[As](C)SC[C@H](NC(=O)CC[C@H](N)C(=O)O)C(=O)NCC(=O)O [SGLU1, S-(dimethylarsino) glutathione]
- effect on cell cycle [1]: marked accumulation of cells in S-phase of cell cycle
- solubility [2]: ~60 mg/mL
- activity against blood cells from patients with leukemia [3]: significant activity against blood tumor cells from patients with leukemia
- LD50 [4]: 350 mg/kg
- MTD ([4]; iv): 350 mg/kg
- tolerance (mortality) [5]: tolerated the 178 mg/kg and the 285 mg/kg doses of SGLU1 well
- Dead/Total Number ([5]; 178 mg/kg): 0/5
- Dead/Total Number ([5]; 285 mg/kg): 1/5
- Dead/Total Number for IP Administration ([5]; 318 mg/kg): 0/5
- Dead/Total Number ([5]; 357 mg/kg): 5/5
- Dead/Total Number for IP Administration ([5]; 375 mg/kg): 4/5
- Dead/Total Number for IV Administration ([5]; 318 mg/kg): 1/5
- Dead/Total Number for IV Administration ([5]; 375 mg/kg): 5/5
- % T/C [6]: 164%
- toxicity to normal cells, long-term clonogenic assay [7]: less toxic then arsenic trioxide to normal cells
- loss [8]: Less than 10%
- activation of caspases (PhiPhiLux staining) [9]: activation of caspases
- induction of maturation (CD11b expression) [10]: do not induce maturation
- anti-cancer activity against a panel of human leukemia cell lines [11]: significant anti-cancer activity
- change of the potential of mitochondrial membrane (CMXRos staining) [12]: involves change of the potential of mitochondrial membrane
- anticancer activity, NIH panel [13]: showed evidence of activity at low concentrations against a variety of tumor cell lines
